In patent US20240002467A1, “COMPOSITIONS AND METHODS OF INHIBITING THE BINDING OF PLASMA IGG AUTOANTIBODIES TO SEROTONIN 2A RECEPTOR” (UNITED STATES GOVERNMENT AS REPRESENTED BY THE DEPARTMENT …, priority 2020, published 2024):
“And” between values parts separate entries of the source, which are not always exact repeats. Equal entries are not always repeated. “Also recorded” adds a separate entry of the source. Ends that are not written are not given here.

Assays:
[1] = tested on: Zucker diabetic fatty rats; experiment: Observation of side effects / tolerability in ZDF rats
[2] = tested on: Zucker diabetic fatty rats; conditions: ZDF rats treated 6 months, cited from earlier work
[3] = tested on: male Zucker diabetic fatty rats; experiment: Tail cuff blood pressure in male ZDF rats after IP peptide; assay type: in vivo, rat; set-up: systolic blood pressure within 15 minutes of administration: unit not given here; conditions: for mean systolic blood pressure, baseline: 8.5-week-old male ZDF rats before single IP: pegylated 1 mg/kg (n=3), scrambled 2 mg/kg (n=4); for Estimate: difference in mean diastolic blood pressure vs scrambled decoy peptide 2 (time series analysis) / Estimate: difference in mean systolic blood pressure vs scrambled decoy peptide 2 (time series analysis): pegylated 1 mg/kg IP vs scrambled 2 mg/kg IP (reference = 0)
Description: Animals. Male ZDF and lean (+/?) Zucker rats were obtained from Charles River Laboratories (Kingston, NY) at approximately 6-7 weeks of age. The rats were single housed upon arrival, without enrichment. Rats were acclimatized for two weeks prior to experimental procedures. Rats were provided ad libitum access to food and water and maintained in a 12 h light/dark cycle with lights on at 0630. The procedures occurred during the light phase of the cycle. Blood pressure testing (following acute or chronic administration of the decoy peptides) was conducted in three separate cohorts of animals.
Cohort 1: Three 25-week-old male ZDF and three, age-matched, male Zucker lean rats (ZLR) treated with IP decoy peptide 2 (ZDF) vs saline (vehicle) (ZLR).
Cohort 2: Eleven-week old male ZDF (n=5) and Zucker lean rats (n=4) treated with IP decoy peptide 2.
Cohort 3: Twelve 8.5-week old male Zucker diabetic fatty rats were randomly assigned to one of three treatment groups (n=4/group). The rats underwent baseline blood pressure determinations using tail-cuff plethysmography technique. Next, the animals who expressed baseline hypertension, i.e., blood pressure >135/85, received either a 1 mg/kg intraperitoneal injection of pegylated decoy peptide 2 (n=3); a 2 mg/kg intraperitoneal dose of a scrambled decoy peptide 2 (n=4); or vehicle (i.e., sterile saline) (N=4). Blood pressure was determined at 15 minutes, 45 minutes, 4 hours, 8 hours, 24 hours, 30 and 48 hours following single IP injection. One week later, the same two groups of ZDF rats received either 0.75 mg/kg IP pegylated decoy peptide 2, 2 mg/kg scrambled decoy peptide 2, or sterile saline; and blood pressure was determined at similar timepoints. Two weeks later, two groups of 12-week-old ZDF rats (n=6/group) including those that had previously received acute peglyated decoy peptide 2 or scrambled decoy peptide 2 were treated on an alternative daily schedule with IP, free decoy peptide 2 (2 mg/kg) vs IP scrambled decoy peptide 2 (2 mg/kg) continuously for 13 weeks until sacrifice at 25 weeks of age. Body weight was determined immediately before sacrifice and after perfusion; and hearts were excised and weighed for determination of the heart-to-(perfused) body weight ratio.
(§1) Blood pressure monitoring. Tail cuff blood pressure measurement was performed using an automated CODA noninvasive blood pressure system (Kent Scientific, Torrington, CT). Rats were placed on an insulated warming platform in a well-heated room to ensure proper body temperature. Cuff monitors were provided in different sizes to accommodate rats of different ages and having different body weights. After the animal was positioned in the clear plastic restraint holder, the appropriate-sized cuff was slid over the rat's tail.
Statistical Analysis. Comparisons were made using Student's unpaired t-test (Tables 3-6, 9 and FIG. 18) or time series analysis (Tables 7, 8, FIG. 16).
as §1, with “CT.).” for “CT).”
Experiment 1: Four 12-week-old male ZDF rats were randomly assigned to receive either a single IP injection of a scrambled sequence (SEQ ID NO: 7) of Peptide ID #2 (SEQ ID NO: 2) at 1 mg/kg concentration or a 1 mg/kg concentration of myristolated Peptide ID #2 (SEQ ID NO: 9). Blood pressure was determined using tail cuff plethysmography (Kent Scientific) at 1, 4, 6, 48 and 72 hours post-injection.
Experiment 2: Six 12-week-old male ZDF rats were assigned to each of three treatment groups (N=2/group). […]

[4] = tested on: Zucker diabetic fatty rats; conditions: rat, in vivo
[5] = cited from earlier work
[6] = tested on: Zucker diabetic fatty rats; experiment: Plasma hepatic transaminases (AST, ALT) after chronic IP treatment of ZDF rats; assay type: in vivo, rat; conditions: 2 mg/kg IP alternate daily weeks 10-16, blood at week 16, vs saline
Description: Two groups of Zucker diabetic fatty rats (N=4 each) were treated with alternate daily intraperitoneal dose (IP) of either a composition comprising decoy peptide 2 (SEQ ID NO: 2) (2 mg/kg) or an equal volume of sterile saline (vehicle) for […] (between weeks 10-16). Blood was obtained at week 16 for determination of plasma hepatic transaminases (AST, ALT) and plasma triglycerides.

[7] = once-daily valsartan 160 mg; cited from earlier work
[8] = 8.5-week-old male ZDF rats, single IP: pegylated 1 mg/kg, scrambled 2 mg/kg
[9] = ZDF rats, before pegylated 0.75 mg/kg IP
[10] = ZDF rats, pegylated 0.75 mg/kg single IP
[11] = ZDF rats, listed as Peg decoy peptide 2
[12] = ZDF rats, pegylated 1 mg/kg single IP

With CC(C)C[C@H](NC(=O)[C@H](CS)NC(=O)[C@H](CC(=O)O)NC(=O)[C@H](CC(N)=O)NC(=O)[C@H](CO)NC(=O)[C@H](C)NC(=O)[C@@H](N)CC(C)C)C(=O)N[C@@H](CC(=O)O)C(=O)O [scrambled decoy peptide 2, reference compound] the “untoward physical or behavioral effect” value ([1]; ten ZDF rats (Expt 1 and 2), up to 14-21 days after single IP) was “None of the ten rats tested (N=4 in Expt 1; N=6 in Expt 2) experienced any untoward physical or behavioral effect”.
In the case of CN(C)C(=N)N=C(N)N [metformin], the “serum ALT, times higher than upper limit of normal” value ([2]; both groups) is given as “more than 3 times” and the “serum ALT” value ([2]; metformin or vehicle (both groups)) is given as ~142 IU/L.
For “K(DBCO-DSPE-PEG2K)-SCLLADDN (not fully specified; Lys-DBCO-DSPE-PEG2000 conjugate; MOD_RES (1)..(1) Lys(Azide)) [pegylated decoy peptide 2]”, the “mean systolic blood pressure, baseline” value [3] was 155 mm Hg, the “mean systolic blood pressure, baseline” value ([3]; listed as Pegylated decoy peptide 2) was 155+/−12 mm Hg and the “mean diastolic blood pressure, baseline” value ([3]; 8.5-week-old male ZDF rats before single IP: pegylated 1 mg/kg, scrambled 2 mg/kg) was 105+/−8 mm Hg. The “mean diastolic blood pressure 45 minutes post-injection” value [3, 8] was 92+/−11 mm Hg, the “mean systolic blood pressure 45 minutes post-injection” value [3, 8] was 122+/−5 mm Hg and the “diastolic blood pressure, baseline” value [3, 9] was 108 mm Hg. For the same molecule, the “systolic blood pressure, baseline” value [3, 9] was 154 mm Hg, the “diastolic blood pressure 30 hours post injection” value [3, 10] was 80 mm Hg and the “diastolic blood pressure at 45 minutes post-injection” value [3, 10] was 80 mm Hg. For the same molecule, the “diastolic blood pressure lowering at 45 minutes post-injection” value [3, 10] was 19%, the “reduction of systolic blood pressure at 45 minutes post-injection” value [3, 10] was 17% and the “reduction of systolic blood pressure between 24-30 hours after injection” value [3, 10] was 14-19%. The “systolic blood pressure at 45 minutes post-injection” value [3, 10] was 128 mm Hg, the “time at which diastolic blood pressure recovered to baseline” value [3, 10] was 48 h and the “time at which systolic blood pressure recovered to baseline” value [3, 10] was 48 h. For the same molecule, the “Estimate: difference in mean diastolic blood pressure vs scrambled decoy peptide 2 (time series analysis)” value ([3]; ZDF rats) was −9.8 mm Hg, the “Estimate: difference in mean systolic blood pressure vs scrambled decoy peptide 2 (time series analysis)” value ([3]; ZDF rats) was −8.9 mm Hg and the “Estimate: difference in mean diastolic blood pressure vs scrambled decoy peptide 2 (time series analysis)” value [3, 11] was −9.7771 mm Hg. For the same molecule, the “Estimate: difference in mean systolic blood pressure vs scrambled decoy peptide 2 (time series analysis)” value [3, 11] was −8.9162 mm Hg, the “change of systolic blood pressure within 15 minutes vs baseline” value [3, 12] was −28% and the “diastolic blood pressure lower than baseline at 30 hours post injection” value [3, 12] was 34%. The “maximum reduction of diastolic blood pressure, 8 hours after injection” value [3, 12] was 36%, the “reduction of diastolic blood pressure at 4 hours post-injection” value [3, 12] was 20% and the “systolic blood pressure within 15 minutes of administration” value [3, 12] was 111. The “time after which systolic blood pressure had returned to baseline” value [3, 12] was 48 h, the “dose dependence of systolic and diastolic blood pressure lowering, in words” value ([3]; ZDF rats, single IP 0.75 to 1 mg/kg) was “significant, dose-dependent systolic and diastolic blood pressure lowering effects; also recorded: significant, dose-dependent, long-lasting systolic and diastolic blood pressure-lowering effect” and the “effect on diastolic blood pressure, in words” value ([3]; ZDF rats, single IP: pegylated 1 mg/kg, scrambled 2 mg/kg) was “trend of significant acute decline in diastolic blood pressure”. The “sustained reductions in systolic and diastolic blood pressure 30 hours after administration” value ([3]; male ZDF rat, pegylated 1 mg/kg) was 25-26% and the “tolerability after the initial dose” value [4] was “no sedation or hypotension was observed after the initial dose”.
For CC/C=C\C/C=C\C/C=C\C/C=C\C/C=C\CCCC(=O)O [EPA], the “HR for cardiovascular events” value ([5]; REDUCE-IT) is given as 0.75, the “reduction in occurrences of cardiovascular death, nonfatal heart attack, nonfatal stroke, coronary stenting or bypass or unstable angina” value ([5]; REDUCE-IT) is given as 25% and the “reduction of plasma triglyceride level” value ([5]; humans, chronic treatment, REDUCE-IT after 1 year) is given as 18% and 18.3%.
For SCLLADDN [decoy peptide 2], the “mean plasma AST” value [6] was “did not differ significantly; also recorded: not associated with significant increase in AST”, the “side effects of acute blood pressure-lowering” value ([1]; 11-week-old male ZDF rats (N=5), 2 mg/kg IP) was “none of the five male ZDF rats experienced any untoward side effects including hypotension or acute sedation” and the “acute side effects after first dose” value ([1]; 25-week-old male ZDF rats, 2 mg/kg IP, two of three rats, resolved spontaneously) was “sedation and borderline hypotension”. The “side effects after repeat drug exposure” value ([1]; 25-week-old male ZDF rats, up to 18 days after repeat 2 mg/kg IP) was “no untoward acute or long-term side effects”, the “long-term side effects after chronic administration” value ([1]; ZDF rats, chronic (10 weeks) administration) was “No untoward long-term side effects were observed” and the “safety and tolerability of alternate daily dosing” value ([1]; obese Zucker rats, 2 mg/kg alternate daily) was “safe, well-tolerated”.
In the case of CCCCC(=O)N(Cc1ccc(-c2ccccc2-c2nnn[nH]2)cc1)[C@H](C(=O)O)C(C)C [valsartan], the “systolic blood pressure-lowering effect after 24 hours, in words” value [7] is given as “no significant systolic blood pressure-lowering effect”.
